Structures are written as SMILES.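 These data come from cells grown in 96-well plates and exposed to compound for 48 hours at five concentrations. At the GI50, growth is halved. Definition used: TGI = concentration required for complete inhibition of growth.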 Where only a bound is given, the exact number is not on record here.

Some test systems named below: SNB-75 CNS; MDA-MB-435; K-562 leukemia; BT-549 breast; SR leukemia; NCI-H23 lung; CCRF-CEM leukemia; SK-MEL-5 melanoma; OVCAR-3 ovarian; HCT-116 colon.
What all share (assay): NCI anticancer screen, dose series, 48 h

As to `O=C1C(c2c(O)[nH]c3ccc(I)cc23)=Nc2ccccc21`, the TGI in the experiment with SNB-75 CNS is 17 µM; in the experiment on MDA-MB-435 it was greater than 100 µM; with K-562 leukemia, greater than 100 µM; in the experiment on BT-549 breast, 29.2 µM; in the experiment with SR leukemia, greater than 100 µM; in the experiment on NCI-H23 lung it was 45.7 µM. The TGI in the experiment on CCRF-CEM leukemia was greater than 100 µM; with SK-MEL-5 melanoma, 10.8 µM; in the experiment with OVCAR-3 ovarian, 29.2 µM.

Turning to `CCOC(=O)[C@H](CO)Nc1c(O)c2c(c(O)c1Cl)C(=O)C=CC2=O`, the TGI in the experiment with SNB-75 CNS, in the experiment on MDA-MB-435, in the experiment with K-562 leukemia, in the experiment on BT-549 breast, in the experiment on SR leukemia and in the experiment on NCI-H23 lung was greater than 10 µM in each case. Also, the TGI in the experiment on CCRF-CEM leukemia, in the experiment with HCT-116 colon, with SK-MEL-5 melanoma and with OVCAR-3 ovarian was greater than 10 µM in each case.

As to `Cc1csc2c(=O)n(COCc3ccccc3)c(=O)[nH]c12`, the TGI with SNB-75 CNS, in the experiment on MDA-MB-435, in the experiment with K-562 leukemia, in the experiment on BT-549 breast, with SR leukemia and in the experiment on NCI-H23 lung was greater than 100 µM throughout. The TGI with CCRF-CEM leukemia, in the experiment on HCT-116 colon, in the experiment with SK-MEL-5 melanoma and in the experiment on OVCAR-3 ovarian was greater than 100 µM in each case.

As for `Nc1nc(N)c2nc(CNc3ccc(C(=O)NC(CCNC(=O)c4ccccc4C(=O)O)C(=O)O)cc3)cnc2n1` (stereo not drawn), the TGI in the experiment with SNB-75 CNS, in the experiment with MDA-MB-435, in the experiment on K-562 leukemia, in the experiment with BT-549 breast, in the experiment with SR leukemia and with NCI-H23 lung was greater than 100 µM each time. In addition, the TGI in the experiment on CCRF-CEM leukemia, with HCT-116 colon, in the experiment with SK-MEL-5 melanoma and with OVCAR-3 ovarian was greater than 100 µM throughout. The GI50 in the experiment with SR leukemia was 0.00433 µM; in the experiment with NCI-H23 lung, 0.0324 µM; with CCRF-CEM leukemia, 0.0065 µM; with SK-MEL-5 melanoma it was 0.0853 µM.

Turning to `N#Cc1c(O)c(C=O)c(=O)n2c1[nH]c1ccccc12`, the TGI with SNB-75 CNS, in the experiment on MDA-MB-435, with K-562 leukemia, with BT-549 breast, in the experiment on SR leukemia and in the experiment on NCI-H23 lung was greater than 100 µM each time. In addition, the TGI in the experiment with CCRF-CEM leukemia, in the experiment with HCT-116 colon, in the experiment with SK-MEL-5 melanoma and in the experiment with OVCAR-3 ovarian was greater than 100 µM throughout.

Regarding `COc1cc(C(=O)N(C(=O)N2CCCCC2)c2ccccc2)cc(OC)c1OC`, the TGI in the experiment with SNB-75 CNS, in the experiment on MDA-MB-435, in the experiment on K-562 leukemia, with BT-549 breast, in the experiment with SR leukemia and in the experiment on NCI-H23 lung was greater than 100 µM each time. The TGI with CCRF-CEM leukemia, in the experiment on HCT-116 colon, in the experiment with SK-MEL-5 melanoma and in the experiment on OVCAR-3 ovarian was greater than 100 µM each time.

On to `CCOC(=O)C1=C(C)N(c2ccc(Cl)cc2)C2(O)C=CC(Nc3ccc(Cl)cc3)=C3C(=O)N(c4ccccc4)C(=O)C312` (stereo not drawn), for which the TGI with SNB-75 CNS is 20.3 µM; in the experiment with MDA-MB-435 it was 5.29 µM; in the experiment with K-562 leukemia it was greater than 100 µM; with BT-549 breast it was 4.69 µM; in the experiment on SR leukemia, greater than 100 µM; in the experiment with NCI-H23 lung, 20 µM. The TGI amounted to 8.39 µM with CCRF-CEM leukemia, 11 µM with SK-MEL-5 melanoma and 2.09 µM with OVCAR-3 ovarian.

On to `CON(C(=O)OC(C)(C)C)c1ccccc1`, for which the TGI in the experiment with SNB-75 CNS, with MDA-MB-435, with K-562 leukemia, in the experiment on BT-549 breast, with SR leukemia and with NCI-H23 lung was greater than 100 µM in each case. For the same compound, the TGI in the experiment on CCRF-CEM leukemia, in the experiment with HCT-116 colon, in the experiment on SK-MEL-5 melanoma and in the experiment on OVCAR-3 ovarian was greater than 100 µM throughout.

As to `CN(C)CCCN=c1c2ccccc2n(C)c2[nH]c(=O)n(C)c(=O)c12`, the TGI with SNB-75 CNS was 21.5 µM; with MDA-MB-435, 16.8 µM; with K-562 leukemia, greater than 52 µM; in the experiment with BT-549 breast, 36.8 µM; in the experiment on SR leukemia, 9.3 µM; with NCI-H23 lung it was 21.7 µM. The TGI was 16.8 µM in the experiment on CCRF-CEM leukemia, greater than 41.8 µM with HCT-116 colon and 18.4 µM in the experiment on SK-MEL-5 melanoma.

For `COc1cc(C2c3cc4c(cc3OC(NNc3ccccc3)C2C)OCO4)cc(OC)c1O` (stereo not drawn), the TGI amounted to 7.56 µM in the experiment on SNB-75 CNS; 3.96 µM in the experiment with MDA-MB-435; 12.4 µM with K-562 leukemia; 28 µM in the experiment on BT-549 breast; 29.7 µM in the experiment with SR leukemia; 29.4 µM in the experiment on NCI-H23 lung. Moreover, the TGI in the experiment with CCRF-CEM leukemia is 21.3 µM; in the experiment on HCT-116 colon, 13.5 µM; with SK-MEL-5 melanoma, 3.68 µM; in the experiment with OVCAR-3 ovarian, 14.8 µM.

`O=C1c2ccccc2C(=O)c2c(NCC3CO3)cccc21` (stereo not drawn): the TGI with SNB-75 CNS was greater than 100 µM; with MDA-MB-435, 20 µM; in the experiment with K-562 leukemia it was 17.3 µM; in the experiment on BT-549 breast, 66.8 µM; with NCI-H23 lung, greater than 40.4 µM; with CCRF-CEM leukemia, 7.71 µM. In addition, the figures for the TGI in the experiment on HCT-116 colon, in the experiment with SK-MEL-5 melanoma and in the experiment on OVCAR-3 ovarian were 17.6 µM, greater than 95.7 µM and greater than 45.8 µM, respectively.

On to `O=C(CBr)NCCc1c[nH]c2ccccc12`, for which the TGI in the experiment on SNB-75 CNS turned out to be 3.12 µM; in the experiment on MDA-MB-435, 3.34 µM; in the experiment with K-562 leukemia, 8.41 µM; in the experiment with BT-549 breast it was 3.83 µM; in the experiment on SR leukemia, 1 µM; with NCI-H23 lung, 3.19 µM. Moreover, the TGI is 0.552 µM with CCRF-CEM leukemia, 3.15 µM in the experiment on HCT-116 colon, 2.46 µM in the experiment with SK-MEL-5 melanoma and 4.09 µM in the experiment on OVCAR-3 ovarian.

For the compound `COC(=O)CN(CC1O[C@@H]2OC(C)(C)O[C@@H]2C1NC(C)=O)C(=O)OCc1ccccc1` (stereo partly drawn), the TGI with SNB-75 CNS, in the experiment with MDA-MB-435, with K-562 leukemia, in the experiment on BT-549 breast, in the experiment on SR leukemia and in the experiment with HCT-116 colon was greater than 100 µM throughout. The TGI with SK-MEL-5 melanoma and in the experiment on OVCAR-3 ovarian was greater than 100 µM each time.

The record behind these values is PubChem BioAssay (NCI).
